Source: US20030060463A1, “Preparation of topical regional compositions for the relief of pain” (priority 1995, published 2003)
Like-named read-outs stand apart in the source and are kept apart here.

Test system: pain due to nerve injury (SMP)
Format: in vivo, human
Source text: The purpose of this study was to evaluate and compare the safety and efficacy in the application of five topical compositions prepared with three active ingredients and applied singly or in combinations for the purpose of relief of sympathetically mediated pain (SMP).
The study size was a total of thirty four volunteer subjects; fifteen female and nineteen male volunteer subjects. Their ages ranged from 29 to 84 with a mean of 52 years of age. All subjects were diagnosed with severe sympathetically mediated pain.
Three different therapeutically active agents were utilized, alone or in combination, in preparations of lecithin matrix gels.
A different composition was applied each treatment day to the area of maximum pain. The patients were asked to indicate the level of their pain immediately prior to the application of the compositions, and then at intervals of 5, 10, 15 minutes, 1, 2 and 3 hours after receiving treatment. Pain intensity was measured using the scale below.
SIGNIFICANT PAIN RELIEF WAS DEFINED AS >50% PAIN RELIEF SUSTAINED GREATER THAN 2 HOURS. For example, if a given patient rated their pain immediately prior to application of the compositions as “very intense”, they would get a 1.8 score per the scale. […]

| SMILES | Safety and efficacy in clinical trials at other dosages (human, in vivo) | Safety and efficacy in clinical trials at other dosages (dosage between 0.05% to 2% of the topical composition) |
| --- | --- | --- |
| CN(C)CCC=C1c2ccccc2CCc2ccccc21 [amitriptylline] | safe and effective |  |
| CNC1(c2ccccc2Cl)CCCCC1=O (centres unmarked) [ketamine] |  | safe and effective |
